# Measured values from ChEMBL document CHEMBL3045612, “Solvent- and catalyst-free synthesis of bis-adducts of 3-formylchromone as potential antimicrobial agents” (2013).
# Legend:
# Talaromyces marneffei [1] = assay: Fungicidal activity against Talaromyces marneffei after 48 hr; format: functional
# Aspergillus fumigatus [2] = assay: Fungicidal activity against Aspergillus fumigatus after 48 hr; format: functional
# [3] = test system: Trichophyton mentagrophytes; assay: Fungicidal activity against Trichophyton mentagrophytes after 48 hr; format: functional
# Candida albicans [4] = assay: Fungicidal activity against Candida albicans after 48 hr; format: functional
# Talaromyces marneffei [5] = assay: Antifungal activity against Talaromyces marneffei assessed as growth inhibition after 48 hr by macrodilution method; format: functional
# [6] = test system: Trichophyton mentagrophytes; assay: Antifungal activity against Trichophyton mentagrophytes assessed as growth inhibition after 48 hr by macrodilution method; format: functional
# Aspergillus fumigatus [7] = assay: Antifungal activity against Aspergillus fumigatus assessed as growth inhibition after 48 hr by macrodilution method; format: functional
# Candida albicans [8] = assay: Antifungal activity against Candida albicans assessed as growth inhibition after 48 hr by macrodilution method; format: functional
# Talaromyces marneffei [9] = assay: Antifungal activity against Talaromyces marneffei assessed as growth inhibition after 3 to 4 days by disk diffusion assay; format: functional
# Klebsiella pneumoniae [10] = assay: Antibacterial activity against Klebsiella pneumoniae clinical isolate assessed as growth inhibition after 24 hr by disk diffusion assay; format: functional
# Pseudomonas aeruginosa [11] = assay: Antibacterial activity against Pseudomonas aeruginosa ATCC 27853 assessed as growth inhibition after 24 hr by disk diffusion assay; format: functional
# [12] = test system: Trichophyton mentagrophytes; assay: Antifungal activity against Trichophyton mentagrophytes assessed as growth inhibition after 3 to 4 days by disk diffusion assay; format: functional
# Aspergillus fumigatus [13] = assay: Antifungal activity against Aspergillus fumigatus assessed as growth inhibition after 3 to 4 days by disk diffusion assay; format: functional
# Candida albicans [14] = assay: Antifungal activity against Candida albicans assessed as growth inhibition after 3 to 4 days by disk diffusion assay; format: functional
# Escherichia coli [15] = assay: Bactericidal activity against Escherichia coli ATCC 25922 after 18 to 24 hr; format: functional
# Klebsiella pneumoniae [16] = assay: Bactericidal activity against Klebsiella pneumoniae clinical isolate after 18 to 24 hr; format: functional
# Pseudomonas aeruginosa [17] = assay: Bactericidal activity against Pseudomonas aeruginosa ATCC 27853 after 18 to 24 hr; format: functional
# Staphylococcus aureus [18] = assay: Bactericidal activity against methicillin-resistant Staphylococcus aureus after 18 to 24 hr; format: functional
# Streptococcus pyogenes [19] = assay: Bactericidal activity against Streptococcus pyogenes after 18 to 24 hr; format: functional
# Escherichia coli [20] = assay: Antibacterial activity against Escherichia coli ATCC 25922 assessed as growth inhibition after 24 hr by macrodilution method; format: functional; details: ATCC 25922, 24 h
# Klebsiella pneumoniae [21] = assay: Antibacterial activity against Klebsiella pneumoniae clinical isolate assessed as growth inhibition after 24 hr by macrodilution method; format: functional
# Pseudomonas aeruginosa [22] = assay: Antibacterial activity against Pseudomonas aeruginosa ATCC 27853 assessed as growth inhibition after 24 hr by macrodilution method; format: functional; details: ATCC 27853, 24 h
# Staphylococcus aureus [23] = assay: Antibacterial activity against methicillin-resistant Staphylococcus aureus assessed as growth inhibition after 24 hr by macrodilution method; format: functional
# Escherichia coli [24] = assay: Antibacterial activity against Escherichia coli ATCC 25922 assessed as growth inhibition after 24 hr by disk diffusion assay; format: functional
# Streptococcus pyogenes [25] = assay: Antibacterial activity against Streptococcus pyogenes assessed as growth inhibition after 24 hr by macrodilution method; format: functional
# Staphylococcus aureus [26] = assay: Antibacterial activity against methicillin-resistant Staphylococcus aureus assessed as growth inhibition after 24 hr by disk diffusion assay; format: functional
# Streptococcus pyogenes [27] = assay: Antibacterial activity against Streptococcus pyogenes assessed as growth inhibition after 24 hr by disk diffusion assay; format: functional
# Staphylococcus aureus [28] = assay: Antibacterial activity against methicillin-resistant Staphylococcus aureus assessed as growth inhibition at 30 ug after 24 hr by halo zone test; details: read-out: DIZ
# Pseudomonas aeruginosa [29] = assay: microbe, parasite or virus in culture; details: ATCC 27853, 24 h, read-out: DIZ
# Description: Antibacterial activity against Pseudomonas aeruginosa ATCC 27853 assessed as growth inhibition at 30 ug after 24 hr by halo zone test
# Escherichia coli [30] = assay: microbe, parasite or virus in culture; details: ATCC 25922, 24 h, read-out: DIZ
# Description: Antibacterial activity against Escherichia coli ATCC 25922 assessed as growth inhibition at 30 ug after 24 hr by halo zone test
# Talaromyces marneffei [31] = assay: Antifungal activity against Talaromyces marneffei assessed as growth inhibition after 3 to 4 days by halo zone test; format: functional
# [32] = test system: Trichophyton mentagrophytes; assay: Antifungal activity against Trichophyton mentagrophytes assessed as growth inhibition after 3 to 4 days by halo zone test; format: functional
# Candida albicans [33] = assay: Antifungal activity against Candida albicans assessed as growth inhibition after 3 to 4 days by halo zone test; format: functional
# Aspergillus fumigatus [34] = assay: Antifungal activity against Aspergillus fumigatus assessed as growth inhibition after 3 to 4 days by halo zone test; format: functional
Structure (SMILES),MFC (Talaromyces marneffei [1]) [µg/mL],MFC (Aspergillus fumigatus [2]) [µg/mL],MFC [3] [µg/mL],MFC (Candida albicans [4]) [µg/mL],MIC (Talaromyces marneffei [5]) [µg/mL],MIC [6] [µg/mL],MIC (Aspergillus fumigatus [7]) [µg/mL],MIC (Candida albicans [8]) [µg/mL],diameter of the inhibition zone (DIZ) (Talaromyces marneffei [9]) [mm],diameter of the inhibition zone (DIZ) (Klebsiella pneumoniae [10]) [mm],diameter of the inhibition zone (DIZ) (Pseudomonas aeruginosa [11]) [mm],diameter of the inhibition zone (DIZ) [12] [mm],diameter of the inhibition zone (DIZ) (Aspergillus fumigatus [13]) [mm],diameter of the inhibition zone (DIZ) (Candida albicans [14]) [mm],MBC (Escherichia coli [15]) [µg/mL],MBC (Klebsiella pneumoniae [16]) [µg/mL],MBC (Pseudomonas aeruginosa [17]) [µg/mL],MBC (Staphylococcus aureus [18]) [µg/mL],MBC (Streptococcus pyogenes [19]) [µg/mL],MIC (Escherichia coli [20]) [µg/mL],other results
Cc1cc(O)c(C(c2c(O)cc(C)oc2=O)c2coc3ccccc3c2=O)c(=O)o1,50,50,50,50,25,25,12.5,12.5,14.2,17.2,21.2,17.8,21.3,24.1,50,50,50,50,50,25,MIC (Klebsiella pneumoniae [21]): 25 µg/mL; MIC (Pseudomonas aeruginosa [22]): 12.5 µg/mL; MIC (Staphylococcus aureus [23]): 25 µg/mL; diameter of the inhibition zone (DIZ) (Escherichia coli [24]): 18.6 mm; MIC (Streptococcus pyogenes [25]): 25 µg/mL; diameter of the inhibition zone (DIZ) (Staphylococcus aureus [26]): 18.5 mm; diameter of the inhibition zone (DIZ) (Streptococcus pyogenes [27]): 19.1 mm
Cc1cc2oc(=O)c(C(c3c(O)c4cc(C)c(C)cc4oc3=O)c3coc4ccccc4c3=O)c(O)c2cc1C,25,25,50,25,12.5,12.5,12.5,12.5,14.8,19.3,23.3,19.4,22.1,27.2,50,50,25,25,25,25,MIC (Klebsiella pneumoniae [21]): 12.5 µg/mL; MIC (Pseudomonas aeruginosa [22]): 12.5 µg/mL; MIC (Staphylococcus aureus [23]): 12.5 µg/mL; diameter of the inhibition zone (DIZ) (Escherichia coli [24]): 20.8 mm; MIC (Streptococcus pyogenes [25]): 12.5 µg/mL; diameter of the inhibition zone (DIZ) (Staphylococcus aureus [26]): 20.7 mm; diameter of the inhibition zone (DIZ) (Streptococcus pyogenes [27]): 21.2 mm
O=c1oc2ccccc2c(O)c1C(c1c(O)c2ccccc2oc1=O)c1coc2ccccc2c1=O,100,50,50,100,25,25,25,25,13.1,17.3,26.4,19.3,16.7,19.1,50,50,50,50,50,25,MIC (Klebsiella pneumoniae [21]): 12.5 µg/mL; MIC (Pseudomonas aeruginosa [22]): 25 µg/mL; MIC (Staphylococcus aureus [23]): 25 µg/mL; diameter of the inhibition zone (DIZ) (Escherichia coli [24]): 22.1 mm; MIC (Streptococcus pyogenes [25]): 25 µg/mL; diameter of the inhibition zone (DIZ) (Staphylococcus aureus [26]): 18.1 mm; diameter of the inhibition zone (DIZ) (Streptococcus pyogenes [27]): 21.5 mm
Cc1[nH]n(-c2ccccc2)c(=O)c1C(c1coc2ccccc2c1=O)c1c(C)[nH]n(-c2ccccc2)c1=O,100,50,50,50,25,25,25,25,14.3,14.5,13.1,18.1,20.7,23.9,100,100,100,50,50,25,MIC (Klebsiella pneumoniae [21]): 25 µg/mL; MIC (Pseudomonas aeruginosa [22]): 25 µg/mL; MIC (Staphylococcus aureus [23]): 25 µg/mL; diameter of the inhibition zone (DIZ) (Escherichia coli [24]): 15.5 mm; MIC (Streptococcus pyogenes [25]): 25 µg/mL; diameter of the inhibition zone (DIZ) (Staphylococcus aureus [26]): 15.6 mm; diameter of the inhibition zone (DIZ) (Streptococcus pyogenes [27]): 16.1 mm
O=C(O)c1cn(C2CC2)c2cc(N3CCNCC3)c(F)cc2c1=O [CIPROFLOXACIN],,,,,,,,,,,,,,,,,,,,,zone of inhibition at 30 µg/disc (Staphylococcus aureus [28]): 22 mm; zone of inhibition at 30 µg/disc (Pseudomonas aeruginosa [29]): 32 mm; zone of inhibition at 30 µg/disc (Escherichia coli [30]): 27 mm
COC1=CC(=O)C[C@@H](C)[C@]12Oc1c(Cl)c(OC)cc(OC)c1C2=O [GRISEOFULVIN],25,12.5,25,25,12.5,6.25,12.5,6.25,,,,,,,,,,,,,diameter of the inhibition zone (DIZ) (Talaromyces marneffei [31]): 20 mm; diameter of the inhibition zone (DIZ) [32]: 24 mm; diameter of the inhibition zone (DIZ) (Candida albicans [33]): 30 mm; diameter of the inhibition zone (DIZ) (Aspergillus fumigatus [34]): 27 mm
